EP4582413A1, “ARYLTETRAHYDROPYRIDINE COMPOUND AND PEST CONTROL AGENT” (priority 2022, dated 2024)

Key:
Format in all cases: in vivo
[1] = test system: cat fleas (Ctenocephalides felis); test: whole plant or invertebrate; conditions: 72 h, read-out: death rate
Experimental: In 1 ml of acetone, 1 mg of the presently invented compound was dissolved to prepare a chemical solution having a concentration of 1000 ppm. The bottom surface and side surface of each glass container having an inner wall surface area of 25 cm^2 were coated with 250 µl of the chemical solution, and acetone was then volatilized to form a thin film of the compound on the inner wall of the glass container.
Into each of the treated glass containers, five cat fleas (Ctenocephalides felis) imagoes (mixed-sex) were released, and the glass containers were capped and accommodated in a thermostatic room at 25°C. Three days after the release, the number of dead flea individuals were examined, and the death rate was calculated from the same calculation formula as in Test Example 1.

[2] = test system: diamondback moths (Plutella xylostella); test: Insecticidal test for diamondback moths; conditions: 500 ppm chemical solution, leaves soaked, third-instar larvae, six days, 25°C; for mortality at 500 µg/mL: Plutella xylostella, 144 h, read-out: death rate; for death rate: 8640 min
Experimental: A 10% by mass emulsion of the presently invented compound prepared according to the above formulation example for an emulsion was diluted with water containing a spreader to prepare a chemical solution having a concentration of 500 ppm. Chinese olive leaves were soaked in the chemical solution for approximately 10 seconds. After the completion of the soaking operation, the Chinese olive leaves treated with the chemical solution were air-dried, and then put in dishes. Into each dish, five third-instar diamondback moths (Plutella xylostella) larvae were released, and the dishes were capped and accommodated in a thermostatic room at 25°C. […] The test was carried out in duplicate.

[3] = test system: brown rice planthoppers (Nilaparvata lugens); test: Insecticidal test for brown rice planthoppers; conditions: 500 ppm chemical solution, rice leaf sheaths soaked, third-instar larvae, six days, 25°C; for mortality at 500 µg/mL: Nilaparvata lugens, 144 h, read-out: death rate; for death rate: 8640 min
Experimental: A 10% by mass emulsion of the presently invented compound prepared according to the above formulation example for an emulsion was diluted with water containing a spreader to prepare a chemical solution having a concentration of 500 ppm. Rice leaf sheaths were soaked in the chemical solution for approximately 10 seconds. After the completion of the soaking operation, the rice leaf sheaths treated with the chemical solution were air-dried, and then put in test tubes. Into each test tube, five third-instar brown rice planthoppers (Nilaparvata lugens) larvae were released, and the test tubes were capped with sponge and accommodated in a thermostatic room at 25°C. Six days after the accommodation, the number of dead brown rice planthoppers individuals in the test tubes were examined, and the death rate was calculated from a calculation formula shown below. The test was carried out in duplicate. [formula]

[4] = test system: western flower thrips (Frankliniella occidentalis); test: Insecticidal activity against western flower thrips; conditions: 500 ppm chemical solution sprinkled (2.5 mg/cm^2), larvae on common bean leaf, after 2 days; for mortality at 500 µg/mL: Frankliniella occidentalis, 48 h, read-out: death rate
Experimental: Wet filter paper was laid on each styrol cup having an inner diameter of 7 cm, and a common bean leaf cut into a 3 cm square was placed thereon, and inoculated with 20 western flower thrips (Frankliniella occidentalis) larvae. A 10% by mass emulsion of the presently invented compound prepared according to the above formulation example for an emulsion was diluted with water containing a spreader to prepare a chemical solution having a concentration of 500 ppm. For each styrol cup, 2.5 ml of the chemical solution prepared was sprinkled (2.5 mg/cm^2) with a rotary tower sprinkler. […] The test was carried out in duplicate.

SMILES | mortality at 10 µg/cm2 [1] | mortality at 500 µg/mL [2] | mortality at 500 µg/mL [4] | also measured
O=C(Nc1ccc(F)cc1)C1=C(O)CC(c2ccc(C(F)(F)F)c(-c3cncc(F)c3)c2)NC1=O (stereo not drawn) [1-002] | ≥ 50% | ≥ 90% | ≥ 90% | mortality at 500 µg/mL [3]: ≥ 90%
COc1ccc(-c2cc(C3CC(O)=C(C(=O)Nc4ccc(F)cc4)C(=O)N3)ccc2C(F)(F)F)cc1 (stereo not drawn) [1-018] | ≥ 50% | ≥ 90% | – | –
O=C(Nc1ccc(F)nc1)C1=C(O)CC(c2cnc(Cl)c(-c3ccc(F)nc3)c2)NC1=O (stereo not drawn) [2-008] | ≥ 50% | ≥ 90% | ≥ 90% | mortality at 500 µg/mL [3]: ≥ 90%
O=C(Nc1ccc(F)cn1)C1=C(O)CC(c2cnc(Cl)c(-c3ccc(F)nc3)c2)NC1=O (stereo not drawn) [2-009] | ≥ 50% | ≥ 90% | ≥ 90% | mortality at 500 µg/mL [3]: ≥ 90%
O=C(Nc1cnc(Cl)cn1)C1=C(O)CC(c2cnc(Cl)c(-c3ccc(F)nc3)c2)NC1=O (stereo not drawn) [2-011] | ≥ 50% | ≥ 90% | ≥ 90% | mortality at 500 µg/mL [3]: ≥ 90%
O=C(Nc1ccc(C(F)(F)F)nc1)C1=C(O)CC(c2cnc(Cl)c(-c3ccc(F)nc3)c2)NC1=O (stereo not drawn) [2-012] | ≥ 50% | ≥ 90% | ≥ 90% | mortality at 500 µg/mL [3]: ≥ 90%
N#Cc1ccc(NC(=O)C2=C(O)CC(c3cnc(Cl)c(-c4ccc(F)nc4)c3)NC2=O)cn1 (stereo not drawn) [2-013] | ≥ 50% | ≥ 90% | ≥ 90% | mortality at 500 µg/mL [3]: ≥ 90%
COc1ccc(-c2cc(C3CC(O)=C(C(=O)Nc4ccc(Cl)nc4)C(=O)N3)cnc2Cl)cn1 (stereo not drawn) [2-017] | – | – | – | death rate [2]: ≥ 90%
C[S+]([O-])c1ccc(NC(=O)C2=C(O)CC(c3cnc(Cl)c(-c4ccc(Cl)nc4)c3)NC2=O)cc1 (stereo not drawn) [2-043] | – | – | – | death rate [3]: ≥ 90%
O=C(Nc1ncc(C(F)(F)F)cn1)C1=C(O)CC(c2cnc(Cl)c(-c3cncc(F)c3)c2)NC1=O (stereo not drawn) [2-051] | – | – | – | death rate [3]: ≥ 90%
O=C(Nc1ccc(Cl)nn1)C1=C(O)CC(c2cnc(Cl)c(-c3cncc(F)c3)c2)NC1=O (stereo not drawn) [2-052] | – | – | – | death rate [3]: ≥ 90%
CC(=O)c1ccc(-c2cc(C3CC(O)=C(C(=O)Nc4ccc(Cl)cn4)C(=O)N3)cnc2Cl)cc1 (stereo not drawn) [2-066] | – | – | – | death rate [2]: ≥ 90%
N#Cc1ccc(NC(=O)C2=C(O)CC(c3cnc(Cl)c(-c4cncc(F)c4)c3)NC2=O)cc1 (stereo not drawn) [2-071] | ≥ 50% | – | ≥ 90% | mortality at 500 µg/mL [3]: ≥ 90%
O=C(Nc1ccc(F)cc1)C1=C(O)CC(c2cnc(Cl)c(-c3ccccc3)c2)NC1=O (stereo not drawn) [2-089] | ≥ 50% | ≥ 90% | ≥ 90% | mortality at 500 µg/mL [3]: ≥ 90%
N#Cc1ccc(NC(=O)C2=C(O)CC(c3cnc(Cl)c(-c4ccccc4)c3)NC2=O)cc1 (stereo not drawn) [2-090] | ≥ 50% | ≥ 90% | ≥ 90% | mortality at 500 µg/mL [3]: ≥ 90%
Cc1cncc(-c2cc(C3CC(O)=C(C(=O)Nc4cnccn4)C(=O)N3)cnc2Cl)c1 (stereo not drawn) [2-148] | ≥ 50% | ≥ 90% | – | –
O=C(Nc1ccccn1)C1=C(O)CC(c2cnc(Cl)c(-c3ccc(F)cc3)c2)NC1=O (stereo not drawn) [2-226] | ≥ 50% | ≥ 90% | ≥ 90% | –
O=C(Nc1ccc(F)cc1)C1=C(O)CC(c2cnc(Cl)c(-c3ccc(F)cc3)c2)NC1=O (stereo not drawn) [2-229] | ≥ 50% | ≥ 90% | ≥ 90% | –
O=C(Nc1ccc(C(F)(F)F)cn1)C1=C(O)CC(c2cnc(Cl)c(-c3ccc(F)cc3)c2)NC1=O (stereo not drawn) [2-230] | – | – | – | death rate [4]: ≥ 90%
O=C(Nc1nccnn1)C1=C(O)CC(c2cnc(Cl)c(-c3ccc(F)cc3)c2)NC1=O (stereo not drawn) [2-237] | – | – | – | death rate [2]: ≥ 90%
O=C(Nc1ncccn1)C1=C(O)CC(c2cnc(Cl)c(-c3ccc(F)cc3)c2)NC1=O (stereo not drawn) [2-238] | ≥ 50% | – | ≥ 90% | mortality at 500 µg/mL [3]: ≥ 90%
O=C(Nc1nncs1)C1=C(O)CC(c2cnc(Cl)c(-c3ccc(F)cc3)c2)NC1=O (stereo not drawn) [2-239] | – | – | ≥ 90% | –
O=C(Nc1ccc(O)cc1)C1=C(O)CC(c2cnc(Cl)c(-c3ccc(F)cc3)c2)NC1=O (stereo not drawn) [2-241] | – | – | – | death rate [2]: ≥ 90%
C#Cc1ccc(NC(=O)C2=C(O)CC(c3cnc(Cl)c(-c4ccc(F)cc4)c3)NC2=O)cc1 (stereo not drawn) [2-243] | – | – | – | death rate [2]: ≥ 90%

SMILES | mortality at 10 µg/cm2 [1] | mortality at 500 µg/mL [2] | mortality at 500 µg/mL [4] | also measured
COc1ccc(NC(=O)C2=C(O)CC(c3cnc(Cl)c(-c4cccc(C)c4)c3)NC2=O)cc1 (stereo not drawn) [2-258] | – | – | – | death rate [4]: ≥ 90%
Cc1cccc(-c2cc(C3CC(O)=C(C(=O)Nc4nccnn4)C(=O)N3)cnc2Cl)c1 (stereo not drawn) [2-270] | ≥ 50% | – | – | –
Cc1cccc(-c2cc(C3CC(O)=C(C(=O)Nc4cccnc4F)C(=O)N3)cnc2Cl)c1 (stereo not drawn) [2-275] | ≥ 50% | – | – | –
Cc1cccc(-c2cc(C3CC(O)=C(C(=O)Nc4ccc([N+](=O)[O-])cc4)C(=O)N3)cnc2Cl)c1 (stereo not drawn) [2-279] | ≥ 50% | ≥ 90% | ≥ 90% | –
Cc1ccc(NC(=O)C2=C(O)CC(c3cnc(Cl)c(-c4cccc(C)c4)c3)NC2=O)cc1 (stereo not drawn) [2-282] | ≥ 50% | ≥ 90% | ≥ 90% | –
CC(=O)c1ccc(NC(=O)C2=C(O)CC(c3cnc(Cl)c(-c4ccc(F)cc4)c3)NC2=O)cc1 (stereo not drawn) [2-295] | – | – | – | death rate [2]: ≥ 90%
CC(C)(C)OC(=O)c1ccc(NC(=O)C2=C(O)CC(c3cnc(Cl)c(-c4ccc(F)cc4)c3)NC2=O)cc1 (stereo not drawn) [2-296] | – | – | ≥ 90% | –
O=C(Nc1ccc(F)cc1)C1=C(O)CC(c2nc(-c3ccc(Cl)cc3)no2)NC1=O (stereo not drawn) [3-003] | ≥ 50% | ≥ 90% | ≥ 90% | –
O=C(Nc1ccc(F)cc1)C1=C(O)CC(c2nc(-c3ccc(C(F)(F)F)cc3)no2)NC1=O (stereo not drawn) [3-004] | – | – | – | death rate [2]: ≥ 90%
O=C(Nc1ccc(Cl)nc1)C1=C(O)CC(c2nc(-c3ccccc3F)no2)NC1=O (stereo not drawn) [3-019] | – | – | – | death rate [2]: ≥ 90%
O=C(Nc1cc(F)ccn1)C1=C(O)CC(c2nc(-c3ccccn3)no2)NC1=O (stereo not drawn) [3-045] | ≥ 50% | – | ≥ 90% | mortality at 500 µg/mL [3]: ≥ 90%
Cc1ccoc1-c1noc(C2CC(O)=C(C(=O)Nc3ccc(F)cn3)C(=O)N2)n1 (stereo not drawn) [3-094] | – | – | – | death rate [3]: ≥ 90%
O=C(Nc1ccc([N+](=O)[O-])c(Cl)c1)C1=C(O)CC(c2nc(-c3ccnc(F)c3)no2)NC1=O (stereo not drawn) [3-120] | – | – | – | death rate [4]: ≥ 90%
Cc1cncc(-c2noc(C3CC(O)=C(C(=O)Nc4ccc(F)cn4)C(=O)N3)n2)c1 (stereo not drawn) [3-130] | – | – | – | death rate [3]: ≥ 90%
O=C(Nc1cc(F)ccn1)C1=C(O)CC(c2nc(-c3c(F)cccc3Cl)no2)NC1=O (stereo not drawn) [3-143] | – | ≥ 90% | – | –
O=C(Nc1cc(F)ccn1)C1=C(O)CC(c2nc(-c3ccc(Cl)c(F)c3)no2)NC1=O (stereo not drawn) [3-145] | ≥ 50% | ≥ 90% | ≥ 90% | –
Cc1ccnc(NC(=O)C2=C(O)CC(c3nc(-c4ccccn4)no3)NC2=O)c1 (stereo not drawn) [3-152] | – | – | – | mortality at 500 µg/mL [3]: ≥ 90%
Cc1ccnc(-c2noc(C3CC(O)=C(C(=O)Nc4ccc(F)cn4)C(=O)N3)n2)c1 (stereo not drawn) [3-153] | – | – | – | death rate [3]: ≥ 90%
Cc1ccc(NC(=O)C2=C(O)CC(c3nc(-c4ccsc4)no3)NC2=O)nc1 (stereo not drawn) [3-168] | – | – | – | death rate [3]: ≥ 90%
O=C(Nc1cc(F)ccn1)C1=C(O)CC(c2nc(-c3ccncn3)no2)NC1=O (stereo not drawn) [3-212] | ≥ 50% | ≥ 90% | – | –
O=C(Nc1ncccc1F)C1=C(O)CC(c2nc(-c3cnccc3F)no2)NC1=O (stereo not drawn) [3-237] | ≥ 50% | ≥ 90% | – | mortality at 500 µg/mL [3]: ≥ 90%
O=C(Nc1cnccn1)C1=C(O)CC(c2nc(-c3ccc(F)cn3)no2)NC1=O (stereo not drawn) [3-261] | – | – | ≥ 90% | mortality at 500 µg/mL [3]: ≥ 90%
Cc1ccc(NC(=O)C2=C(O)CC(c3nc(-c4ccnc(F)c4)no3)NC2=O)cc1Cl (stereo not drawn) [3-267] | – | – | ≥ 90% | –
Cc1csc(NC(=O)C2=C(O)CC(c3nc(-c4ccc(F)nc4)no3)NC2=O)n1 (stereo not drawn) [3-290] | – | – | – | death rate [3]: ≥ 90%
